# According to patent US4610868A, “Lipid matrix carriers for use in drug delivery systems” (The Liposome Company, Inc., priority 1984, dated 1986):
# Where two headings read alike, the source gives them in different places.
# What was measured:
# [1] = assay type: in vivo, Swiss Webster mice; details: 80 mg/kg IM
# Experimental: LMCs containing oxytetracycline--HCl (Sigma Chemical Co., St. Louis, Missouri) were prepared as described in Section 6.1.3. supra. The LMCs thus produced contained 20 mg of oxytetracycline per ml of hydrated LMCs, as determined by the bioassay described in Section 6.1.3. Ten 25 g female adult Swiss Webster mice were then injected IM with 80 mg/kg of oxytetracycline in one hind leg, using either LMC-oxytetracycline or the free drug. In both cases, the antibiotic was administered in 0.1 ml of physiological saline.
# At the times indicated in FIG. 3, samples of clean-catch urine were taken and aliquots were plated onto lawns of S. aureus (ATCC 11632) as described in Section 7.1. Antibiotic levels were quantified by comparison to an oxytetracycline standard curve. […] By 174 hours following injection, urinary levels of oxytetracycline were undetectable.
# [2] = Systemic release (urine) of oxytetracycline after topical administration; assay type: in vivo, Swiss Webster mice; details: 0.2 ml of 100 mg/ml, 1, 18, 44 and 72 hours
# Experimental: (§1) In the following experiment, two groups of adult male Swiss Webster mice were treated with oxytetracycline as follows: 5 mice per group were depilitated on the back of their necks and 0.2 ml of 100 mg/ml oxytetracycline was topically applied to the depilitated area. The control group received oxytetracycline in PBS whereas the second group received oxytetracycline encapsulated in LMCs prepared as described in Section 6.1.3.
# Clean catch urine samples were taken at 1, 18, 44, and 72 hours after topical application and aliquots were analyzed for the presence of oxytetracycline using the bioassay previously described in Sections 6.1.2, 7.1, and 7.2.
# [3] = Fluorescence/retention of oxytetracycline in skin after topical administration; assay type: in vivo, Swiss Webster mice; details: 0.2 ml of 100 mg/ml
# Experimental: as §1
# On a daily basis the treated area of each mouse was illuminated with ultraviolet light and inspected for fluorescence. Since oxytetracycline is fluorescent, the fluorescence of the treated skin is an indication of the presence of the drug in the skin. Fluorescence could be detected for only 2 days in the control group treated with the aqueous solution of oxytetracycline. […] In contrast, fluorescence could be detected up to 4 days in the group that was treated with oxytetracycline-LMCs.
# [4] = Entrapment of indomethacin or diazepam in LMCs (radiolabeled tracer); assay type: physicochemical
# Experimental: Ten mg of indomethacin (Sigma Chemical Co., St. Louis, Missouri) plus 10 μl of the ^14 C-labeled drug as a tracer (New England Nuclear, Boston, Massachusetts, 22 mCi/m mole) were dissolved in 1.5 ml of chloroform. This solution was then combined with 4 ml of corn oil and 150 mg of EPC, and the mixture was slowly extruded through a 21 gauge syringe needle into 20 ml of PBS at 45° C., with stirring. After combining all constituents, the mixture was roto-evaporated at 45° C. to remove the chloroform. One ml of the resulting suspension was then combined with an equal volume of Ficoll-Paque, the mixture was centrifuged at 10,000×g for 10 minutes, and the LMCs, which floated to the top of the gradient, were isolated.
# By following the procedure described in Section 6.2.1., supra, 5 mg of diazepam (Abbott Laboratories, N. Chicago, Illinois) with a trace of the ^3 H-labeled drug added (New England Nuclear, Boston, Massachusetts, 76.7 Ci/m mole) were incorporated into LMCs.
# [5] = parameters: species or system Hartley guinea pigs; details: guinea pig, in vivo, ip
# Experimental: To investigate the drug release characteristics of LMCs in vivo, gentamicin-LMC preparations were injected intraperitoneally (IP) into experimental animals. The final distribution of the drug was then compared with that of similarly injected free gentamicin.
# LMCs were prepared as described in Section 6.1.2., using 6 ml of corn oil, 0.3 ml of PBS, 40 mg of EPC, 100 mg of gentamicin (with a small amount of I-gentamicin added as a tracer) and 40 ml of acetone. The resulting product contained 0.5 mg of gentamicin per mg of dry weight LMCs, as determined by gamma counting.
# Two groups of 850 g female adult Hartley guinea pigs (Hilltop Farms, Scottsdale, Pennsylvania) were treated as follows: Animals in one group each received 0.3 ml of 100 μg/ml gentamicin in saline (with a small amount of ^125 I-gentamicin added as a tracer), IP. IP injection leads to rapid systemic distribution of the injected material. Animals in the other group received the same quantity of gentamicin entrapped in LMCs. At various times after injection pairs of animals were sacrificed, the hearts, spleens, kidneys and livers were removed, and the quantity of gentamicin in each organ was determined by counting in a crystal gamma counter.
# [6] = Entrapment of ^14C-sucrose/streptomycin in LMCs (liquid scintillation counting); assay type: physicochemical; details: with streptomycin, corn oil/EPC, water-in-oil emulsion
# Experimental: Streptomycin (Sigma Chemical Co., St. Louis, Missouri) and ^14 C-sucrose (New England Nuclear, Boston, Massachusetts, 31.3 μCi/m mole) were used together as model water soluble compounds for entrapment in conjunction with corn oil and EPC. The ratio of corn oil to EPC used to prepare the emulsion was […] (weight/weight basis). The water-in-oil emulsion was prepared as follows: 6 ml of corn oil, 40 mg of EPC and 0.3 ml of phosphate buffered saline (PBS) containing 10 μl of ^14 C-sucrose and 100 mg of streptomycin were sonicated together for 45 seconds, using a Branson Model E sonicator at 22° C. The resulting water-in-oil emulsion was then extruded slowly through a 21 gauge syringe needle into 40 ml of the saturated acetone solution, with rapid stirring.
# A cloudy suspension of LMCs resulted that was centrifuged at 10,000×gfor 10 minutes at 4° C. The clear supernatant fluid was removed, and the pellet was washed three times with cold saturated acetone, dried under a nitrogen stream, and resuspended in 10 ml of PBS. The hydrated LMCs were then diluted with an equal volume of Ficoll-Paque (Pharmacia Fine Chemicals, Piscataway, New Jersey) and centrifuged at 10,000×g for 10 minutes. […]
# In FIG. 4, the data are based upon the stability of streptomycin-LMCs in serum. […] At the times indicated, the absorbances of the samples at 400 and 600 nm were determined, and the 400/600 ratios were computed.
compound,measurement,setting,value
CN(C)C1C(=O)C(C(N)=O)=C(O)C2(O)C(=O)C3=C(O)c4c(O)cccc4C(C)(O)C3C(O)C12 (stereo not drawn) [oxytetracycline],time within which urinary levels diminished to zero,[1],≤ 30 h
same,oxytetracycline in urine,[2],No detectable levels
same,duration of detectable skin fluorescence,[3],2 days
same,removal from skin by washing,[3],could easily be washed off
COc1ccc2c(c1)c(CC(=O)O)c(C)n2C(=O)c1ccc(Cl)cc1 [indomethacin],degree of entrapment,[4],84%
same,degree of entrapment (starting amount incorporated into the LMCs),"[4]; corn oil/EPC, chloroform",84%
gentamicin,"Recovery of Gentamicin, Heart",[5]; 15 min,0.17 % of Total Administered
same,"Recovery of Gentamicin, Kidney",[5]; 15 min,2.53 % of Total Administered
same,"Recovery of Gentamicin, Liver",[5]; 15 min,2.60 % of Total Administered
same,"Recovery of Gentamicin, Spleen",[5]; 15 min,0.09 % of Total Administered
same,"Recovery of Gentamicin, Heart",[5]; 30 min,1.23 % of Total Administered
same,"Recovery of Gentamicin, Kidney",[5]; 30 min,4.32 % of Total Administered
same,"Recovery of Gentamicin, Liver",[5]; 30 min,3.14 % of Total Administered
same,"Recovery of Gentamicin, Spleen",[5]; 30 min,0.08 % of Total Administered
same,"Recovery of Gentamicin, Heart",[5]; 60 min,0.15 % of Total Administered
same,"Recovery of Gentamicin, Kidney",[5]; 60 min,7.04 % of Total Administered
same,"Recovery of Gentamicin, Liver",[5]; 60 min,2.28 % of Total Administered
same,"Recovery of Gentamicin, Spleen",[5]; 60 min,0.05 % of Total Administered
same,"Recovery of Gentamicin, Heart",[5]; 120 min,0.13 % of Total Administered
same,"Recovery of Gentamicin, Kidney",[5]; 120 min,7.27 % of Total Administered
same,"Recovery of Gentamicin, Liver",[5]; 120 min,2.00 % of Total Administered
same,"Recovery of Gentamicin, Spleen",[5]; 120 min,0.04 % of Total Administered
CN1C(=O)CN=C(c2ccccc2)c2cc(Cl)ccc21 [diazepam],degree of entrapment,[4],93%
"OC[C@H]1O[C@@](CO)(O[C@H]2O[C@H](CO)[C@@H](O)[C@H](O)[C@H]2O)[C@@H](O)[C@@H]1O [^14 C-sucrose, sucrose]",initial amount of ^14 C-sucrose entrapped in the LMCs,[6],96.5%
